Where “and” joins values, the source holds several entries; their conditions need not be identical. Equal entries are not always repeated. Entries after “also recorded” stand apart in the source; their conditions may differ.
What was measured:
FRG mice [1] = assay: Maintenance of FRG mice on NTBC in drinking water and NTBC withdrawal; assay type: in vivo, mouse
Procedure: To generate an immunodeficient Fah^−/− mouse strain completely lacking T cells, B cells and NK cells, but without a DNA repair defect, Fah^−/−/Rag2^−/−/Il2rg^−/− (FRG) mice were generated. Male Fah^−/−129S4 mice (Grompe et al. Genes Dev. 7:2298-2307, 1993) were crossed with female Rag2^−/−/Il2rg^−/− mice (Taconic). All animals were maintained with drinking water containing 2-(2-nitro-4-trifluoro-methyl-benzoyl)-1,3 cyclohexanedione (NTBC) at a concentration of 1.6 mg/L (Grompe et al. Nat. Genet. 10:453-460, 1995). To confirm the genotypes of each animal, PCR-based genotyping was carried out on 200 ng genomic DNA isolated from toe tissue (Grompe et al. Genes Dev. 7:2298-2307, 1993; Traggiai et al. Science 304:104-107, 2004).

FRG mice [2] = assay: Liver repopulation of FRG mice treated with anakinra (blood human albumin by ELISA); assay type: in vivo, mouse; conditions: for blood level of human albumin, Elisa #1: Experiment #3, serial transplantation
Procedure: Small amounts of blood were collected once a week from the left saphenous vein with a heparinized blood capillary. After 1,000 or 10,000× dilution with Tris-buffered saline, human albumin concentration was measured with the Human Albumin ELISA Quantitation Kit (Bethyl) according to the manufacturer's protocol.
One million human hepatocytes from the same batch were injected intrasplenically into six FRG mice. In three mice, anakinra (2 mg) was administered intraperitoneally during surgery and then once daily for six additional doses (total dose=14 mg over 7 days). One month after transplantation, blood human albumin was measured by ELISA. […] All three anakinra-treated mice had much higher albumin levels (130, 165 and 200 μg/ml).
Additional experiments validated these initial observations. […] Cohorts of genetically identical mice were injected with the same batch of human cells and were either untreated (Con) or treated with anakinra (Ana). Different dosing regimens of anakinra were used and different lengths of administration were tested. High dose anakinra (Hi) was 2 mg/mouse/day and low dose (lo) was 0.4 mg/mouse/day. The drug was injected daily for either 3 days (×3) or 7 days (×7). Blood levels of human albumin were measured by ELISA to ascertain the degree of human repopulation.

CYP3A4 [3] = assay: Conversion of testosterone to 6-beta-hydroxyltestosterone in cultured hepatocytes from humanized mice; conditions: cultured hepatocytes from repopulated FRG livers
Description: (§1) The basal expression and induction of human liver specific genes in chimeric mice was examined. […] Primers, obtained from Applied Biosystems, were specific for human CYP1A1 (Hs00153120_m1), CYP1A2 (Hs00167927_m1), CYP3A4 (Hs00430021_m1), CYP3A7 (Hs00426361_a1), CYP2B6 (Hs00167937_g1), CYP2D6 (Hs00164385_a1), Multidrug resistance associated protein MRP2 (Hs00166123_m1), Bile Salt export Pump BSEP, (Hs00184829_m1), CAR (Hs00231959_m1) Albumin (Hs00609411_m1), HNF4α (Hs00230853_m1), Cyclophillin (Hs99999904_m1) and mouse actin (Ma00607939_s1).
Cultures of isolated hepatocytes were established and exposed to prototypical inducers of the cytochrome P450 genes. […] In addition to the mRNA expression levels of human drug metabolism genes, the enzymatic activity of the human CYP1A and 3A family members were measured. Ethoxyresorufin-O-deethylase activity (EROD) is known to be mediated by CYP1A1 and 1A2 in human liver.

CYP3A4 [4] = assay: Induction of CYP3A4 mRNA in hepatocytes from humanized mice (real-time PCR); conditions: relative to non-induced cultures; FIG. 7B
Description: as §1

CYP1A1 and 1A2 = assay: Ethoxyresorufin-O-deethylase (EROD) activity in cultured hepatocytes from humanized mice; assay type: cell-based, human; conditions: humanized mouse liver cells in culture
Procedure: (§2) Cultures of isolated hepatocytes were established and exposed to prototypical inducers of the cytochrome P450 genes. […]. In addition to the mRNA expression levels of human drug metabolism genes, the enzymatic activity of the human CYP1A and 3A family members were measured. Ethoxyresorufin-O-deethylase activity (EROD) is known to be mediated by CYP1A1 and 1A2 in human liver. […] Thus, hepatocytes from repopulated FRG livers were indistinguishable from normal human adult hepatocytes in these standard drug metabolism assays.

[5] = system: human drug metabolism genes; assay: Induction of mRNAs of drug metabolism genes in cultured hepatocytes from humanized mice (real-time PCR); assay type: cell-based; conditions: cultured hepatocytes from chimeric mice, mRNA
Procedure: as §2

## O=C1CCCC(=O)C1C(=O)c1ccc(C(F)(F)F)cc1[N+](=O)[O-] [NTBC, 2-(2-nitro-4-trifluoro-methyl-benzoyl)-1,3 cyclohexanedione]
FRG mice [1]; FRG mice, gradual hepatocellular injury after withdrawal
  death after NTBC withdrawal: 4-8 weeks
FRG mice [1]; NTBC continuously in drinking water, 1.6 mg/L
  growth and fertility of FRG mice: grew well and were fully fertile

## anakinra: recombinant, non-glycosylated version of human IL-1RA (IL-1 receptor antagonist), 153 amino acids, SEQ ID NO: 21
FRG mice [2]; Experiment #1, primary transplantation, high dose (2 mg/mouse/day) x7
  blood level of human albumin, Elisa #2: 5.6 mg and 4.8 mg
FRG mice [2]; Hi (2 mg/mouse/day) x3
  blood level of human albumin, Elisa #1: 52 μg-Hi x3 and 60 μg-Hi x3
FRG mice [2]; Hi (2 mg/mouse/day) x7
  blood level of human albumin, Elisa #1: 38 μg-Hi x7 and 56 μg-Hi x7
FRG mice [2]; FRG mice, one million human hepatocytes intrasplenically, anakinra 2 mg i.p. during surgery then once daily for six doses (total 14 mg over 7 days), one month after transplantation
  blood human albumin: 130 µg/mL and 165 µg/mL and 200 µg/mL
FRG mice [2]; anakinra-treated versus untreated FRG mice
  hepatocyte repopulation (in words): remarkably enhanced; also recorded: consistently had much higher levels of repopulation
FRG mice [2]; on average, three independent tests of Table 6
  enhanced repopulation versus untreated mice: approximately 100 fold
FRG mice [2]; with anakinra treatment versus without
  percentage of highly humanized FRG mice after transplantation of human hepatocytes: significantly higher

## CCC1(c2ccccc2)C(=O)NC(=O)NC1=O [PB, phenobarbital]
CYP3A4 [3]
  conversion of testosterone to 6-beta-hydroxyltestosterone after prior exposure to inducer: specifically induced
CYP3A4 [4]
  induction of CYP3A4 mRNA: even more striking than at the enzyme level

## O=c1cc(-c2ccccc2)oc2ccc3ccccc3c12 [BNF, beta-naphthoflavone]
CYP1A1 and 1A2
  EROD activity after prior exposure to inducer: specifically and robustly induced
[5]
  pattern of genes induced: as expected from normal human cells
